{"source": "patent US20180169045A1", "about": "“AMINO ACID COMPOSITIONS AND METHODS FOR THE TREATMENT OF LIVER DISEASES” (AXCELLA HEALTH INC., priority 2016, published 2018)", "type_in_all_cases": "cell-based", "key": {"[1]": {"tested_on": "Primary human hepatic stellate cells", "assay": "TGFβ1-induced procollagen Iα1 secretion in primary human hepatic stellate cells (ELISA)", "settings": "for procollagen Iα1 secretion, in words: primary human hepatic stellate cells from three donors, 3 ng/mL TGFβ1, 24 h", "method": "(§1) Primary human hepatic stellate cells were obtained from Samsara Sciences based on the following criteria for selecting donors: adult age (between 18 and 50 years), normal BMI (>18.5 and <25), and absence of confounding liver disease. Cells grown in Complete HSC Medium to ˜80% confluence in T75 or T150 flasks below passage 10 were seeded into sterile, collagen I coated, 96-well optical plastic microplates (ThermoScientific, 152036) at 6000 cells per well ([…]) and incubated overnight at 37° C., 5% CO2 in a humidified incubator in DMEM with 2% Fetal Bovine Serum and 1% Antibiotic-Antimycotic.\n(§2) After the overnight incubation, plates were removed from the incubator and the medium was gently pipetted off and washed twice with 150 μL per well DPBS. The DPBS was removed and the pretreatment medium (±single amino acid dropout, 1×HMDB DMEM+1% Antibiotic-Antimycotic, 10 mM HEPES, ±supplemental amino acid dose; see experiment for medium composition) was applied to the cells at 150 μL per well. Plates were returned to the incubator for 10.5 hours.\n(§3) After 10.5 hour pretreatment, the medium was removed from the cells, and the same pretreatment medium, now supplemented with 3 ng/mL TGFβ1, was applied. Each plate contained 3 ng/mL TGFβ1 in 1× human plasma amino acid (HMDB or PAA) concentration medium, 0 ng/mL in 1×HMDB, and 3 ng/mL TGFβ1+20 μM Silybin in 1×HMDB to serve as controls. Plates were then incubated for 24 hours at 37° C., 5% CO2.\n(§4) After 24 hour stimulus, supernatant was removed and frozen at −80° C. in two separate aliquots. The cells were then washed with 125 μL per well Buffer FCW (FastLane Cell Multiplex NR Kit, Qiagen, 216713). The wash buffer was immediately removed and 50 μL of Cell Processing Mix (containing genomic DNA Wipeout buffer) was applied to lyse cells, incubating for 10 minutes at room temperature. RNA lysate was then transferred to 96-well qPCR plates, sealed, and gDNA was digested on thermal cycler at 75° C. for 5 minutes. RNA lysate was frozen at −80° C.\nHuman Procollagen Iα1 was measured from the supernatant by ELISA (Human Pro-Collagen I alpha 1 DuoSet ELISA, R&D Systems) at 1/100 dilution in 1× Reagent Diluent (Reagent Ancillary Kit 2, R&D Systems)."}, "[2]": {"tested_on": "Primary human PMBC derived macrophages", "assay": "LPS-induced TNFa secretion in primary human monocyte-derived macrophages (ELISA)", "set-up": "TNFa Measurements Mean (baseline subtracted): unit not given beside the values", "settings": "for LPS-induced TNFa secretion, in words: primary human monocyte-derived macrophages", "method": "Isolation of Peripheral Blood Mononuclear Cell (PBMC) Unpurified buffy coats (Research Blood Components) were carefully poured into 50 mL centrifuge tubes and diluted with room temperature Dulbecco's Phosphate Buffered Saline (dPBS) with Calcium and Magnesium (Gibco). Diluted buffy coats were further divided into four total 50 mL centrifuge tubes at 20 mL per tube. Lymphocyte Separation Medium (Corning) was carefully pipetted to the bottom of each centrifuge tube. Mixtures were centrifuged at 850×g for 32 minutes at 20° C. with 0 deceleration and acceleration.\nCD14+ cells were selected using EasySep™ Human CD14 Positive Selection Kit II ([…] Technologies). Cells were resuspended in cold EasySep™ Buffer ([…] Technologies) at 1×10^8 cells/mL. A total of 100 uL/mL EasySep™ Human CD14 Positive Selection Cocktail II was added to the cell suspension, mixed, and incubated at room temperature for 10 minutes. A total of 100 uL/mL RapidSpheres were added to the mixture and incubated at room temperature for 3 minutes after mixing, then RoboSep buffer was added to bring up the total volume to 10 mL. The mixture in a 15 mL tube was placed in magnet and incubated at room temperature for 3 minutes. Supernatant was discarded and 10 mL fresh EasySep™ buffer was added to 15 mL tube. The addition of RoboSep buffer, mixing, and discarding of supernatant was repeated two more times.\nNegative and positive fractions were centrifuged at 490×g for 5 minutes at 20° C. with acceleration of 9, deceleration of 9, and resuspended in DMEM (Gibco) and 10% Heat Inactivated Fetal Bovine Serum (Atlanta Bio) and Penicillin/Streptomycin. Cells were counted and centrifuged again at 490×g for 5 minutes at 20° C. with acceleration of 9, deceleration of 9. After centrifugation, cell were resuspended in DMEM (Gibco) and 10% Heat Inactivated Fetal Bovine Serum (Atlanta Bio) and Penicillin/Streptomycin containing 500 U/mL […] and plated at 1-2×10^6 cells/mL on 10 cm tissue culture plates. Cells were kept in 37° C., 5% CO2 in between feedings/harvest.\nCells were fed every 3-4 days by removing media and unattached cells, centrifuging at 490×g for 5 minutes at 20 C with acceleration of 9, deceleration of 9, and resuspending in fresh DMEM (Gibco) and 10% Heat Inactivated Fetal Bovine Serum (Atlanta Bio) and Penicillin/Streptomycincontaining 500 U/mL GM-CSF. Resuspended cells were seeded back onto 10 cm tissue culture plates and incubated at 37° C., 5% CO2.\nAfter complete cell attachment, culture supernatant was removed and cultures were washed 1× with 5 mL PBS. A total of 3 mL room temperature Cellstripper was added and cultures were incubated at 37° C., 5% CO2 for approximately 10 minutes until cells were rounded and beginning to detach. Cell scraper was used to completely detach cells from plate. Collected cell were spun down at 490 g for 5 min at room temperature and resuspended in 10% DMSO in Heat Inactivated Fetal Bovine Serum and immediately frozen in −80 C.\nPrimary human PMBC derived macrophages were seeded on day 0 at 3.0E4 cells per well in 96-well microplates (ThermoFisher) in Dulbecco's Modified Eagle Medium (DMEM) (Gibco) supplemented with penicillin-streptomycin (Hyclone) and 10% heat inactivated fetal bovine serum (HI-FBS) (Atlanta Bio) and incubated overnight at 37° C., 5% CO2. On day 1, cells were washed once with 150 uL per well DPBS (Gibco) and treated with 75 uL of: • a. Amino acid free DMEM (US Biologicals) containing a defined custom amino acid concentration based on the mean physiological concentrations in blood based on values published in the Human Metabolome Database (HMDB), with 6 mM glucose, 1 mM sodium pyruvate, 10 mM HEPES, 0.2% primocin (InVivoGen); or • b. The same medium described above with one amino acid at various concentrations including complete dropout. […]"}, "[3]": {"tested_on": "Primary human hepatic stellate cells", "assay": "TGFβ1-induced Col1a1 gene expression in primary human hepatic stellate cells (RT-qPCR)", "settings": "for Col1a1 gene expression, in words: primary human hepatic stellate cells from three donors, 3 ng/mL TGFβ1, 24 h", "method": "as §1, §2, §3, §4\nEach 20 μL one-step RT-qPCR reaction contained 4 μL of RNA lysate. Gene expression of Col1a1, Timp2, and Gapdh were multiplexed using the HEX, Cy5, and FAM fluorescent channels, respectively, with commercially available primer-probe mixes (the Human Col1a1 Primer-Probe Set, HEX; the Human Timp2 Primer-Probe Set, Cy5; and the Human Gapdh Primer-Probe Set, FAM from IDT). Gene expression was evaluated using the ΔΔCq method within each single amino acid dropout and supplementation by normalizing to its own 1×HMDB concentration."}}}
{"smiles": "N=C(N)NCCC[C@H](N)C(=O)O", "note": "[Arginine, L-Arginine]", "values": [{"measurement": "Procollagen Iα1 Secretion (Fold Change of 1X), Mean", "setting": "[1]; first donor, Conc. 109 μM (baseline)", "value": 1.0000, "unit": "fold"}, {"measurement": "procollagen Iα1 secretion, in words", "setting": "[1]", "value": "significantly increased procollagen Iα1 secretion in two of three donors"}, {"measurement": "Procollagen Iα1 Secretion (Fold Change of 1X), Mean", "setting": "[1]; second donor, Conc. 109 μM (baseline)", "value": 1.0000, "unit": "fold"}, {"measurement": "Procollagen Iα1 Secretion (Fold Change of 1X), Mean", "setting": "[1]; third donor, Conc. 109 μM (baseline)", "value": 1.0000, "unit": "fold"}, {"measurement": "TNFa Measurements Mean (baseline subtracted)", "setting": "[2]; Donor 1, Conc. 109 μM (baseline), LPS 0.15 ng/mL", "value": 0}, {"measurement": "Col1a1 gene expression, in words", "setting": "[3]", "value": "did not significantly change"}]}
{"smiles": "CC[C@H](C)[C@H](N)C(=O)O", "note": "[Isoleucine, L-Isoleucine]", "values": [{"measurement": "procollagen Iα1 secretion, in words", "setting": "[1]", "value": "significantly increased procollagen Iα1 secretion in two of three donors"}, {"measurement": "Procollagen Iα1 Secretion (Fold Change of 1X), Mean", "setting": "[1]; second donor, Conc. 66 μM (baseline)", "value": 1.0000, "unit": "fold"}, {"measurement": "Procollagen Iα1 Secretion (Fold Change of 1X), Mean", "setting": "[1]; third donor, Conc. 66 μM (baseline)", "value": 1.0000, "unit": "fold"}, {"measurement": "TNFa Measurements Mean (baseline subtracted)", "setting": "[2]; Donor 1, Conc. 66 μM (baseline), LPS 0.15 ng/mL", "value": 0}, {"measurement": "LPS-induced TNFa secretion, in words", "setting": "[2]; Donor 2, 0.15 ng/mL LPS", "value": "increased"}, {"measurement": "Col1a1 gene expression, in words", "setting": "[3]", "value": "did not significantly change"}]}
{"smiles": "CC(=O)N[C@@H](CS)C(=O)O", "note": "[N-acetylcysteine]", "values": [{"measurement": "procollagen Iα1 secretion, in words", "setting": "[1]", "value": "significantly decrease procollagen Iα1 secretion in two of the three donors"}, {"measurement": "TNFa Measurements Mean (baseline subtracted)", "setting": "[2]; Donor 1, Conc. 0 X (baseline), LPS 0.15 ng/mL", "value": 0}, {"measurement": "LPS-induced TNFa secretion, in words", "setting": "[2]; Donor 1, 0.15 ng/mL LPS", "value": "significantly reduced"}, {"measurement": "LPS-induced TNFa secretion, in words", "setting": "[2]; Donor 2, 0.15 ng/mL LPS", "value": "significantly reduced"}, {"measurement": "LPS-induced TNFa secretion, in words", "setting": "[2]; Donor 3, 0.15 ng/mL LPS", "value": "significantly reduced"}, {"measurement": "Col1a1 gene expression, in words", "setting": "[3]", "value": "significantly reduced Col1a1 gene expression in all three donors"}]}
{"smiles": "NC(=O)CC[C@H](N)C(=O)O", "note": "[Glutamine, L-Glutamine]", "values": [{"measurement": "Procollagen Iα1 Secretion (Fold Change of 1X), Mean", "setting": "[1]; first donor, Conc. 562 μM (baseline)", "value": 1.0000, "unit": "fold"}, {"measurement": "procollagen Iα1 secretion, in words", "setting": "[1]", "value": "did not have a significant impact"}, {"measurement": "Procollagen Iα1 Secretion (Fold Change of 1X), Mean", "setting": "[1]; second donor, Conc. 562 μM (baseline)", "value": 1.0000, "unit": "fold"}, {"measurement": "Procollagen Iα1 Secretion (Fold Change of 1X), Mean", "setting": "[1]; third donor, Conc. 562 μM (baseline)", "value": 1.0000, "unit": "fold"}, {"measurement": "TNFa Measurements Mean (baseline subtracted)", "setting": "[2]; Donor 3, Conc. 749 μM (baseline)", "value": 0}, {"measurement": "LPS-induced TNFa secretion, in words", "setting": "[2]; Donor 2, 0.15 ng/mL LPS", "value": "increased"}, {"measurement": "LPS-induced TNFa secretion, in words", "setting": "[2]; Donor 3, 0.15 ng/mL LPS", "value": "increased"}, {"measurement": "Col1a1 gene expression, in words", "setting": "[3]", "value": "decreased Col1a1 gene expression in two of three donors"}]}
{"smiles": "CC(C)[C@H](N)C(=O)O", "note": "[Valine, L-Valine]", "values": [{"measurement": "Procollagen Iα1 Secretion (Fold Change of 1X), Mean", "setting": "[1]; first donor, Conc. 234 μM (baseline)", "value": 1.0000, "unit": "fold"}, {"measurement": "procollagen Iα1 secretion, in words", "setting": "[1]", "value": "significantly increased procollagen Iα1 secretion in only one of two donors"}, {"measurement": "Procollagen Iα1 Secretion (Fold Change of 1X), Mean", "setting": "[1]; second donor, Conc. 234 μM (baseline)", "value": 1.0000, "unit": "fold"}, {"measurement": "Procollagen Iα1 Secretion (Fold Change of 1X), Mean", "setting": "[1]; third donor, Conc. 234 μM (baseline)", "value": 1.0000, "unit": "fold"}, {"measurement": "TNFa Measurements Mean (baseline subtracted)", "setting": "[2]; Donor 1, Conc. 234 μM (baseline), LPS 0.15 ng/mL", "value": 0}, {"measurement": "Col1a1 gene expression, in words", "setting": "[3]", "value": "did not significantly change"}]}
{"smiles": "CC(C)C[C@H](N)C(=O)O", "note": "[Leucine, L-Leucine]", "values": [{"measurement": "Procollagen Iα1 Secretion (Fold Change of 1X), Mean", "setting": "[1]; first donor, Conc. 153 μM (baseline)", "value": 1.0000, "unit": "fold"}, {"measurement": "Procollagen Iα1 Secretion (Fold Change of 1X), Mean", "setting": "[1]; second donor, Conc. 153 μM (baseline)", "value": 1.0000, "unit": "fold"}, {"measurement": "Procollagen Iα1 Secretion (Fold Change of 1X), Mean", "setting": "[1]; third donor, Conc. 153 μM (baseline)", "value": 1.0000, "unit": "fold"}, {"measurement": "TNFa Measurements Mean (baseline subtracted)", "setting": "[2]; Donor 2, Conc. 153 μM (baseline), LPS 0.15 ng/mL", "value": 0}, {"measurement": "LPS-induced TNFa secretion, in words", "setting": "[2]; Donor 2, 0.15 ng/mL LPS", "value": "increased"}, {"measurement": "Col1a1 gene expression, in words", "setting": "[3]", "value": "did not significantly change"}, {"measurement": "Col1a1 Fold Expression Relative to Control, Mean", "setting": "[3]; second donor, normalized to Gapdh, Conc. 153 μM (baseline)", "value": 1.01, "unit": "fold"}]}
